The text below walks through data of patent US20230059136A1, “THE COMPOUNDS AND COMPOSITIONS FOR TREATING CONDITIONS ASSOCIATED WITH NLRP ACTIVITY” (Novartis AG, priority 2018, published 2023).

SMILES strings stand for the structures. Like-named read-outs stand apart in the source and are kept apart here. Some results are limits rather than exact numbers.

The subject of the test is IL-1β production in PMA-differentiated THP-1 cells. The test is described as follows: IL-1β production in PMA-differentiated THP-1 cells stimulated with gramicidin (hTHP-1 assay containing 2% fetal bovine serum). Type of test: cell-based, human. The conditions noted are these: 2% fetal bovine serum, read-out: hTHP-1 IC50 (Average IC50 of compounds in hTHP-1 assay). The method, boiled down: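 IL-1β release was read by HTRF on supernatants of 50,000 PMA-primed (20 ng/ml, 16-18 h) THP-1 cells/well in 2% FBS medium. Cells saw compound for 1 h (11-point titration from 100 μM, 0.37% DMSO) before a 2 h gramicidin (5 μM) challenge.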

Where [1] appears, read: Homo sapiens, THP-1, Table B1, class symbols.
Where [2] appears, read: Homo sapiens, THP-1, Table B1, cells printed as numeric bound.
The mark [3] stands for this setting: Homo sapiens, THP-1, Table B2, class symbols.

As a reminder, the IC50 is the concentration at which inhibition is half-maximal.

Turning to `Cc1nc(C(C)(C)O)sc1S(N)(=O)=NC(=O)Cc1c(C(C)C)cc(OC(F)F)cc1C(C)C` (single isomer, unassigned) [Example 85, (R)- or (S)-2-(4-(difluoromethoxy)-2,6-diisopropylphenyl)-N-(2-(2-hydroxypropan-2-yl)-4-methylthiazol-5-ylsulfonimidoyl)acetamide], under “Table B1, class symbols”, the half-inhibitory concentration (IC50) was in the range of 5 to 30 µM.

For the molecule `CC(C)c1cc(-c2ccc3c(c2)COCC3)cc(C(C)C)c1CC(=O)N=S(N)(=O)c1cnc(C(C)(C)O)s1` (single isomer, unassigned) [Example 172, (S) or (R)-N-(amino(2-(2-hydroxypropan-2-yl)thiazol-5-yl)(oxo)-λ^6-sulfaneylidene)-2-(4-(isochroman-7-yl)-2,6-diisopropylphenyl) acetamide], the half-maximal inhibitory concentration (IC50) (Table B1, class symbols) was 5 to 30 µM.

With `CC(C)c1nc(-c2cccc(C(F)(F)F)c2)c(F)c(C(C)C)c1CC(=O)N=S(N)(=O)c1cnc(C(C)(C)O)s1` (stereo not shown) [Example 100, N-(amino(2-(2-hydroxypropan-2-yl)thiazol-5-yl)(oxo)-λ^6-sulfaneylidene)-2-(5-fluoro-2,4-diisopropyl-6-(3-(trifluoromethyl)phenyl)pyridin-3-yl)acetamide], under setting [1], the 50% inhibitory concentration (IC50) was in the range of 0.2 to 1 µM.

Take `CCc1c2c(cc(C(C)C)c1CC(=O)N=S(N)(=O)c1cnc(C(C)(C)O)s1)COC2` (single isomer, unassigned) [Example 290, (S) or (R)-N-(amino(2-(2-hydroxypropan-2-yl)thiazol-5-yl)(oxo)-λ^6-sulfaneylidene)-2-(4-ethyl-6-isopropyl-1,3-dihydroisobenzofuran-5-yl)acetamide]: the IC50 under setting [2] is > 30 µM.

As to `CC(C)c1cc2c(c(C(C)C)c1CC(=O)N=S(N)(=O)c1ccn(CCO)n1)OC(F)(F)O2` (racemic) [Example 348, (R) and (S)—N-(amino(1-(2-hydroxyethyl)-1H-pyrazol-3-yl)(oxo)-λ^6-sulfaneylidene)-2-(2,2-difluoro-4,6-diisopropylbenzo[d][1,3]dioxol-5-yl)acetamide], the IC50 (Table B2, class symbols) was 0.2 to 1 µM.

With `CC(C)c1cc(C(F)F)cc(C(C)C)c1CC(=O)N=S(N)(=O)c1ccc(C(C)(C)O)cc1F` (single isomer, unassigned) [Example 86, (S)- or (R)-2-(4-(difluoromethyl)-2,6-diisopropylphenyl)-N-(2-fluoro-4-(2-hydroxypropan-2-yl)phenylsulfonimidoyl) acetamide], the half-inhibitory concentration (IC50) (Table B1, class symbols) lay within 1 to 5 µM.

Regarding `CC(C)c1cc(COC2CCCC2)cc(C(C)C)c1CC(=O)N=S(N)(=O)c1cnc(C(C)(C)O)s1` (single isomer, unassigned) [Example 288, (S) or (R)-N-(amino(2-(2-hydroxypropan-2-yl)thiazol-5-yl)(oxo)-λ^6-sulfaneylidene)-2-(4-((cyclopentyloxy)methyl)-2,6-diisopropylphenyl) acetamide], the 50% inhibitory concentration (IC50) under setting [2] was > 30 µM.

With `CC(C)c1cc(C#N)c(F)c(C(C)C)c1CC(=O)N=S(=O)(NC#N)c1cnc(C(O)(CO)CO)s1` (stereo not shown) [Example 360, N-(cyanamido(oxo)(2-(1,2,3-trihydroxypropan-2-yl)thiazol-5-yl)-λ^6-sulfaneylidene)-2-(4-cyano-3-fluoro-2,6-diisopropylphenyl)acetamide], the IC50 under setting [3] was in the range of 5 to 30 µM.

As to `CC(C)c1cc(C(F)F)nc(C(C)C)c1CC(=O)N=S(N)(=O)c1ccc(CN(C)C)cc1` (single isomer, unassigned) [Example 331, (R) or (S)-N-(amino(4-((dimethylamino)methyl)phenyl)(oxo)-λ^6-sulfaneylidene)-2-(6-(difluoromethyl)-2,4-diisopropylpyridin-3-yl)acetamide], the IC50 under setting [1] is 1 to 5 µM.

Consider `CCn1cc(F)c(S(N)(=O)=NC(=O)Cc2c(C(C)C)cc3c(c2C(C)C)COC3)n1` (stereo not shown) [Example 393, N-(amino(1-ethyl-4-fluoro-1H-pyrazol-3-yl)(oxo)-λ^6-sulfaneylidene)-2-(4,6-diisopropyl-1,3-dihydroisobenzofuran-5-yl)acetamide], for which, under setting [3], the IC50 was 1 to 5 µM.
